Laboratory results: article PMC6614837 (Nucleic Acids Research, 2019)
Several values for one entry are separate records, joined by “and”; a condition that tells them apart may be missing. Equal values may be shown once. Where a name gives a salt, the structure may show the parent alone.

Experiments:
[1] = biological target: T1, RNase P holoenzyme from Thermotoga maritima (Thermotoga maritima, UniProt Q9X1H4); assay: Verification of deconvoluted hits by fluorescence- and gel-based assays with Mh substrate; assay type: biochemical; settings: 250 μM (fluorescence) and 500 μM (gel)
T1 construct: made in house
T1 sequence (Q9X1H4 1-117): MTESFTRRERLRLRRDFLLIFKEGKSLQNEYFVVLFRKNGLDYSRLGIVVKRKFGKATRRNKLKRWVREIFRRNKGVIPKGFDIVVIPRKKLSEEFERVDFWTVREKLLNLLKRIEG
Method: For gel-based activity assays, reactions were prepared as described in the previous section (fluorescence activity assay), incubated for 1–15 min at 37–50°C, then loaded onto a denaturing 7 M urea–20% acrylamide gel in the case of the Mh substrate or 19% acrylamide (40% acrylamide/bisacrylamide 38.5:1.5) for the bipartite pre-tRNA substrate. The activity conditions for the gel reported in Figure 3A, to monitor the cleavage of the holoenzyme and P RNA, were under 100 mM AmOAc and 10 mM MgCl2. The gels (13 × 16 × 0.15 cm) were electrophoresed at 20 V/cm for 2–3 h. UV shadowing or ethidium bromide staining was used to visualize RNA cleavage. Detection of minihelix fluorescence was achieved without staining using a UV lamp with excitation at ∼254 nm.
Screening was performed with the Spectrum Collection (MicroSource Discovery Systems, Inc), which comprises 2560 compounds, each dissolved in DMSO at 10 mM. For our initial screening, compounds from this collection were tested in cocktails; eight compounds were tested per well in 384-well format. The final concentration of each compound in the cocktail was 1.25 mM. For the activity assay, reactions were set up in a total volume of 20 μl (13.5 μl of activity buffer, 1.5 μl of fluorescent Mh at 3.6 μM, 3 μl of DMSO or cocktail). […] The control wells included for each experiment series were: (i) reaction with twice (3 μl) the fluorescent Mh amount to avoid a signal saturation for the rest of the wells, (ii) two reactions with 10% DMSO (no cocktail), (iii) Mh substrate only, with no ribozyme, (iv) reaction with 100 mM CaCl2, which it is used as a negative control as it competes with MgCl2 (EDTA was not used because metal ions are essential to maintaining the structure of P RNA ([41])). The reaction was initiated by adding 2 μl of holoenzyme at 333 nM and monitored as described above. Each round of experiments contained twenty different cocktails corresponding to one row of a 384-well plate (Supplementary Figures S6 and S24). […] At this stage, each compound from the inhibitory cocktails was tested at a final concentration of 1 mM (2 μl of the 10 mM stock). We performed a gel-based assay for the nine selected compounds to qualitatively verify the results obtained by the fluorescence assay (Supplementary Figure S9). After deconvolution, each of the final four potential positive compounds was purchased individually from a different provider (Sigma-Aldrich) and tested inhibition using the T. maritima Mh, pre-tRNA and bipartite pre-tRNA substrates (Figure 2 and Supplementary Figures S10–S12 and S14).
Supplementary Figure 9. Consistent results between fluorescence- and gel-based assays. (A) Plots of fluorescent kinetic assays performed in standard conditions in the presence of the different hits at a concentration of 250 µM (four-fold lower concentration as compared to Supplementary Figure 8). (B) End-point assays of the RNase P holoenzyme from Thermotoga maritima in the presence of the non-fluorescent minihelix substrate and the different inhibitor hits at 500 µM, as assessed by 20% urea-PAGE.
The holoenzyme at 0.5 µM was preincubated at 37° C for 30 minutes in the presence of the individual compounds, centrifuged for 15 minutes at 12000g and incubated with the Mh substrate at 18 µM at 37 °C for 15 minutes. At this stage, iodoquinol was the only compound whose behavior was not corroborated in both assays (panels A and B). […]
experiments reported in this Figure. […] Alexidine […]

P protein = biological target: T2, P protein (Thermotoga maritima, UniProt Q9X1H4); assay: Binding hindrance of the 5′ RNA leader to the P protein (BLI); design: species or system T. maritima; settings: compound 100 μM, 5′ RNA leader 5 μM
T2 construct: GST (cleaved yes); made in house; host or cells: E. coli BL21(DE3)pLysS
T2 sequence (Q9X1H4 1-117): T1 sequence (Q9X1H4 1-117)
Method: A 5′ RNA leader sequence with 10-bases 5′-GGAAAAAGAU-3′ was purchased from IDT and used at a concentration of 5 μM. This sequence is the same used to obtain the crystal structure of the RNase P holoenzyme ([19]). The His-tagged P protein was immobilized on Ni-NTA biosensors at 0.05 mg/ml (3.4 μM). […] The steps performed on the assay and their periods were: P protein immobilization (400 s), wash (100 s), baseline […] (1000 rpm), compound association (800 s), compound dissociation (200 s) (500 rpm), baseline (100 s), 5′ leader association (200 s), 5′ leader dissociation (200 s) (1000 rpm). The assay was performed at 30°C. The compounds were used at 100 μM throughout. All assay steps were performed in 20 mM HEPES pH 7.4, 100 mM ammonium acetate, 10 mM MgCl2, 5% DMSO.
5 ′ RNA leader. (A) Experimental design of 5′ RNA leader binding hindrance experiments. Figures B-F are based on the analysis region depicted in panel A, where association and dissociation of the 5′ RNA leader to the P protein (TmP) is measured over time. P protein at 3.5 µM was immobilized on Ni-NTA biosensors for 300 s, while compounds were assayed at 100 µM and the […]
binding, in contrast with hematein (E) and purpurin (F).
(1 picture or pasted object on this page, not shown here)

[2] = system: 3'-biotinylated minihelix (Mh; pMini3bpUG) (RNA, hairpin) GAUCUGAAUGCGGAAACGCGCCAC; assay: biolayer interferometry; settings: Mg2+ 10 mM, NH4+ 100 mM (ammonium acetate); 20 mM HEPES pH 7.4, DMSO, 30°C; compound 15.6-500 µM
minihelix (Mh) = assay: Biolayer interferometry binding to biotinylated minihelix substrate; settings: BLI
Method: 3′-Biotinylated minihelix was purchased from Integrated DNA Technologies (IDT) (24-mer RNA sequence, 5′-[…]-3′-Biotin). The biotinylated minihelix was immobilized on Super Streptavidin (SSA) biosensors at a concentration of 10 μM. […] For the titration experiments, 10 μM of 3′-biotinylated minihelix was immobilized for 300 s on Super Streptavidin (SSA) biosensors, followed by a wash step of 100 s and association and dissociation steps of 200 s in the presence of 6 different concentrations of compound ranging from 500 to 15.6 μM. SSA biosensors with no minihelix were used to measure non-specific binding of compounds. All other parameters (buffer, instrument control, analysis) are as described above.
Supplementary Figure 16. Binding assays monitor the interaction of compounds with the minihelix (Mh). Gentian violet and methylene blue bind in a dose-dependent relationship to the artificial minihelix substrate. […]
interaction between the minihelix and (A) gentian violet (KD=8 µM ) and (B) methylene blue A 3′-biotinylated substrate minihelix at 10 µ M was immobilized on super streptavidin (SSA) biosensors for 300 s.
Supplementary Figure 17. pre-tRNA displaces bound purpurin in a dose-response […]
indicating a true competition between purpurin and pre-tRNA binding sites. […]

[3] = biological target: T1, RNase P holoenzyme from Thermotoga maritima; assay: Real-time fluorescence-based (FRET) RNase P activity assay with minihelix (Mh) substrate; assay type: biochemical; settings: 100 mM MgCl2
Method: The reconstitution of the RNase P holoenzyme was performed as described in ([40],[19]). This protocol produces a homogeneous and functional ribozyme that can be crystallized by mixing P RNA and P protein in a 1:1.1 molar ratio in 1× TH buffer (33 mM Tris–HCl, 66 mM HEPES, pH 7.4) and 400 mM ammonium acetate (AmOAc). The mixture was heated to 95°C for 2 min in a water bath, then chilled on ice for 2 min, after which MgCl2 was added to a final concentration of 100 mM. […] This higher concentration was used in all experiments described herein. The holoenzyme was further incubated at 50°C for 10 min and 37°C for 40 min. The final concentration of holoenzyme was 333 nM (35.6 μg/ml of P RNA and 4.7 μg/ml of P protein).
The minihelix (Mh) substrate (Figure 1A) was adopted from a previously characterized RNase P substrate, pMini3bpUG ([32],[33]) and coupled to either Black Hole Quencher 1 (BHQ1) or Black Hole Quencher 2 (BHQ2) at the 5′-end and Alexa Fluor 488 at the 3′-end. This probe was purchased either from Sigma-Aldrich or Integrated DNA Technologies (IDT). A requested scale of […] yielded between 6.3 and 20 nmol (57.5 to 181 μg, enough for 1300–4000 reactions depending on the experimental substrate concentration). Before use, the minihelix was diluted from a 100 μM stock (dissolved in water) to 3.6 μM in activity buffer H (33 mM Tris–HCl, 66 mM HEPES, pH 7.4, 400 mM AmOAc and 100 mM MgCl2).
Reactions were performed in a total volume of 20 μl. Pipetting was done by hand using multichannel pipettes. First, an 18 μl reaction mixture containing 16.5 μl of activity buffer (H for Mh or L supplemented with 10% PEG 200 for bipartite pre-tRNA) and 270 nM (Mh) or 135 nM (bipartite pre-tRNA) (1.5 or 0.7 μl of the 3.6 μM stock) of the fluorescent substrate probe was pre-incubated on ice for at least 5 m in a black polystyrene 384-well microtiter microplate with a flat transparent bottom (Corning ref 3540). The holoenzyme was then added at a final concentration of 33 nM (2 μl of a 333 nM stock) in 1× TH buffer and mixed. Kinetic activity was monitored in a Synergy MX Multimode Detector (BioTek) at 37°C with rapid agitation. At least 20 readings were taken per well every 15 s. The probe was excited at 485 nm, and its emission was monitored at 535 nm with an integration time of 1 s. From the plots of relative fluorescent units (RFU) versus time, linear regression was used to determine the slopes in the linear portion of the curves, using at least 12 data points to obtain initial velocities. Non-linear fitting to obtain the Michaelis–Menten parameters was performed using GraphPad Prism® 6.01 software.
Supplementary Figure 3. FRET assays of RNase P with the fluorescent substrate are reproducible. (A) Representative plots of kinetic assays performed in a single run. The standard assay (SA), (+), was performed at 37° C in a total volume of 20 µL and contained RNase P holoenzyme at 33 nM, substrate minihelix (Mh) at 270 nM, 10% DMSO and activity buffer (AB).
The negative control assay (-) contained 100 mM CaCl2 in place of MgCl2. Ten to twelve wells were monitored simultaneously in a typical assay. (B) Zoomed view of the linear region of the kinetic assays shown in panel A. Fluorescence readings were performed every 15-20 seconds.
Linear regression calculations were done using the GraphPad Prism 7 software. (C) The coefficient Z’-factor (1) was used as an indicator of reproducibility and was calculated based on the relative fluorescence units (RFU) in the plateau phase (taken at 20 minutes). The Z’-factor has a […]
presented in this work were either measured in triplicate or confirmed in subsequent assays. (D) […]
assay is robust. The IC50 values reported in Figures 1C and 2 were calculated according to this kinetic parameter. There is a negative drift in fluorescence in the case of the negative control.
However, it should be noted that the mean value of it (-279) is much smaller than the signal of the […]
positive control (3397). […]

Cc1cc(O)c2c(c1)C(=O)c1cc(O)cc(O)c1C2=O [emodin]
Inhibition of RNase P in fluorescence and gel verification [1]: did not inhibit RNase P

N=C1C=CC(=C(c2ccc(N)cc2)c2ccc(N)cc2)C=C1 [Pararoseaniline]
Inhibition of RNase P in fluorescence and gel verification [1]: did not inhibit RNase P

CCCCC(CC)CNC(=N)NC(=N)NCCCCCCNC(=N)NC(=N)NCC(CC)CCCC (stereo not drawn) [alexidine hydrochloride]
Inhibition of RNase P in fluorescence and gel verification [1]: seems to precipitate the holoenzyme

CN(C)c1ccc2nc3ccc(=[N+](C)C)cc-3sc2c1 [methylene blue, reference compound]
Hindrance of 5′ RNA leader binding to the P protein (P protein): did not interfere with RNA leader
KD [2]: 35 µM
Kd (minihelix (Mh); 3′-biotinylated minihelix 10 μM on SSA biosensors): 35 µM
Binding to the minihelix substrate (minihelix (Mh); initial screening at 1 mM and titration): binding signal
IC50 ([3]; fluorescent Mh substrate 270 nM, holoenzyme 33 nM, 10% DMSO, 37°C, 400 mM AmOAc): 110 µM and 109 µM

Oc1c(I)cc(I)c2cccnc12 [iodoquinol, reference compound]
Inhibition of RNase P in fluorescence and gel verification [1]: false positive

O=C(N/N=C/c1ccc([N+](=O)[O-])o1)c1cc([N+](=O)[O-])cc([N+](=O)[O-])c1O [nifursol, reference compound]
Inhibition of RNase P in fluorescence and gel verification [1]: weak inhibitor

NC[C@H]1O[C@H](O[C@H]2[C@H](O)[C@@H](O[C@H]3O[C@H](CO)[C@@H](O)[C@H](N)[C@H]3O)[C@H](N)C[C@@H]2N)[C@H](N)[C@@H](O)[C@@H]1O [kanamycin B, reference compound]
Inhibition of RNase P (Mh fluorescence assay) [3]: did not detect inhibition

NC[C@@H]1O[C@H](O[C@H]2[C@@H](O)[C@H](O[C@@H]3[C@@H](O)[C@H](N)C[C@H](N)[C@H]3O[C@H]3O[C@H](CN)[C@@H](O)[C@H](O)[C@H]3N)O[C@@H]2CO)[C@H](N)[C@@H](O)[C@@H]1O [neomycin B, reference compound]
Inhibition of RNase P (Mh fluorescence assay) [3]: did not detect inhibition
